Results on ten compounds are retold here after ChEMBL document CHEMBL1201862, “PubChem BioAssay data set” (2004).

Among the test systems are 786-0; ACHN; HCC 2998; HL-60; HOP-62; Hs-578T; K562; M14; MCF7; MDA-N; MOLT-4; NCI/ADR-RES; OVCAR-3; OVCAR-8; PC-3; SF-539; SK-MEL-2; SR; SW-620; UACC-62.
What all share (experiment): inhibition of tumour cell growth, NCI panel, 48 h

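Growth conditions: 96-well plates. Treatment: test compound, 48 hours, 5 concentrations. Analysis: linear interpolation between bracketing concentrations; unreached endpoints set to highest concentration. GI50 is the concentration that inhibits growth by half.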 Calls of active or inactive are those of the source. Rule as the data show it: active = GI50 up to about 1.1 µM and inactive = higher.

On to `CCCc1c(O)c(=O)c2c(OC)cc(OC)c3c4c(OC)cc(OC)c5c(=O)c(O)c(CCC)c(c1c23)c54`, for which the GI50 was 0.676 µM (active) in the assay with 786-0; 0.617 µM (active) with ACHN; 1.76 µM (inactive) with HCC 2998; 1.74 µM (inactive) with HL-60; 0.543 µM (active) in the assay on HOP-62; 0.468 µM (active) in the assay on Hs-578T. Moreover, the GI50 with K562 is 0.195 µM (active); in the assay with M14, 0.755 µM (active); with MCF7, 0.403 µM (active); in the assay on MDA-N, 0.425 µM (active); in the assay with MOLT-4 it was 0.0883 µM (active); with NCI/ADR-RES, 0.9 µM (active). In addition, the GI50 is 1.92 µM (inactive) in the assay on OVCAR-3; 0.513 µM (active) in the assay with OVCAR-8; 0.443 µM (active) in the assay on PC-3; 0.361 µM (active) with SF-539; 0.507 µM (active) with SK-MEL-2; 0.141 µM (active) in the assay on SR. The GI50 in the assay on SW-620 is 1.13 µM (inactive); with UACC-62 it was 0.396 µM (active).
As to `O=c1c(Cl)nsnc1Cl`, the GI50 in the assay with 786-0 was 1.7 µM (inactive); in the assay with ACHN it was 6.1 µM (inactive); with HCC 2998, 19.4 µM (inactive); in the assay with HL-60 it was 0.787 µM (active); with HOP-62, 18.7 µM (inactive); with Hs-578T, 30.2 µM (inactive). The GI50 was 1.73 µM (inactive) in the assay with K562; 5.01 µM (inactive) in the assay with M14; 6.22 µM (inactive) in the assay on MCF7; 18.7 µM (inactive) in the assay on MDA-N; 1.9 µM (inactive) in the assay with MOLT-4; 40.1 µM (inactive) in the assay with NCI/ADR-RES. Besides, the GI50 was 5.69 µM (inactive) in the assay with OVCAR-3; 36.1 µM (inactive) in the assay with OVCAR-8; 16.2 µM (inactive) in the assay with PC-3; 12.9 µM (inactive) in the assay with SF-539; 36.4 µM (inactive) in the assay on SK-MEL-2; 1.95 µM (inactive) in the assay with SR. The GI50 in the assay with SW-620 is 3.43 µM (inactive); in the assay with UACC-62 it was 11.1 µM (inactive).
In the case of `COC(=O)c1ccc(C)cc1CC1Cc2c(C)cccc2C1=O` (stereo not given), the GI50 with 786-0 was 12.8 µM (inactive); in the assay with ACHN, 22.2 µM (inactive); with HCC 2998 it was 11.1 µM (inactive); in the assay with HL-60, 4.54 µM (inactive); in the assay on HOP-62 it was 13.6 µM (inactive); in the assay with Hs-578T, 8.55 µM (inactive). The GI50 was 2.94 µM (inactive) with K562; 9.27 µM (inactive) in the assay with M14; 2.11 µM (inactive) with MCF7; 1.87 µM (inactive) with MDA-N; 5.56 µM (inactive) in the assay with MOLT-4; 3.35 µM (inactive) in the assay on NCI/ADR-RES. Moreover, the GI50 is 3.96 µM (inactive) in the assay with OVCAR-3; 14.3 µM (inactive) with OVCAR-8; 6.5 µM (inactive) in the assay with PC-3; 8.17 µM (inactive) with SF-539; 5.9 µM (inactive) in the assay on SK-MEL-2; 9.35 µM (inactive) in the assay on SR. Also, the GI50 in the assay on SW-620 is 3.85 µM (inactive); in the assay on UACC-62, 6.01 µM (inactive).
On to `CN(C)CC1CCCC(CN2CCCCC2)C1=O` (stereo not given), for which the GI50 is 2.74 µM (inactive) in the assay with 786-0; 6.58 µM (inactive) in the assay with ACHN; 18.5 µM (inactive) in the assay on HCC 2998; 2.18 µM (inactive) in the assay on HL-60; > 100 µM (inactive) in the assay with HOP-62; 19.7 µM (inactive) in the assay on Hs-578T. Further, the GI50 in the assay on K562 was 0.172 µM (active); in the assay with M14, 7.73 µM (inactive); in the assay on MCF7, 1.07 µM (active); in the assay on MDA-N it was 14.4 µM (inactive); in the assay on MOLT-4, 0.604 µM (active); in the assay with NCI/ADR-RES it was 3.89 µM (inactive). For the same compound, the GI50 with OVCAR-3 was 8.63 µM (inactive); in the assay with OVCAR-8, 14.2 µM (inactive); in the assay with PC-3, 15.6 µM (inactive); in the assay on SF-539 it was 17.5 µM (inactive); in the assay with SK-MEL-2, 15.7 µM (inactive); with SR it was 10.8 µM (inactive). The GI50 with SW-620 is 1.87 µM (inactive); in the assay on UACC-62, 18.3 µM (inactive).
Turning to `O=C1NC(Nc2cccc(Cl)c2)=N/C1=C\c1ccc(Cl)c(Cl)c1`, the GI50 in the assay with 786-0 was 3.76 µM (inactive); in the assay with ACHN, 5.05 µM (inactive); in the assay with HCC 2998 it was 2.28 µM (inactive); in the assay on HL-60, 1.95 µM (inactive); in the assay with HOP-62 it was 8.79 µM (inactive); in the assay on Hs-578T it was 3.04 µM (inactive). Further, the GI50 in the assay on K562 was 3.33 µM (inactive); in the assay on M14 it was 4.42 µM (inactive); in the assay on MCF7, 3.01 µM (inactive); with MDA-N, 4.52 µM (inactive); in the assay with MOLT-4, 3.37 µM (inactive); in the assay on NCI/ADR-RES, 4.04 µM (inactive). The GI50 in the assay with OVCAR-3 is 5.14 µM (inactive); in the assay with OVCAR-8, 4.34 µM (inactive); in the assay with PC-3 it was 3.66 µM (inactive); in the assay on SF-539, 9.31 µM (inactive); in the assay on SK-MEL-2, 2.44 µM (inactive); in the assay with SR, 2.82 µM (inactive). Also, the GI50 in the assay on SW-620 was 3.68 µM (inactive); with UACC-62, 10.1 µM (inactive).
As for `CC(C)N(CC(=O)O)CC(=O)O`, the GI50 with 786-0, in the assay with ACHN, with HCC 2998, with HL-60, in the assay on HOP-62 and with Hs-578T was > 100 µM (inactive) each time. Moreover, the GI50 with K562, in the assay on M14, in the assay on MCF7, in the assay with MDA-N, with MOLT-4 and in the assay with NCI/ADR-RES was > 100 µM (inactive) each time. Further, the GI50 in the assay on OVCAR-3, with OVCAR-8, in the assay with PC-3, in the assay on SF-539, with SK-MEL-2 and in the assay on SR was > 100 µM (inactive) each time. For the same compound, the GI50 in the assay on SW-620 and in the assay on UACC-62 was > 100 µM (inactive) throughout.
`c1ccc(CSc2ccccc2CN2CCN(Cc3ccccc3SCc3ccccc3)CCN(Cc3ccccc3SCc3ccccc3)CC2)cc1`: the GI50 is 1.61 µM (inactive) with 786-0; 2.58 µM (inactive) with ACHN; 1.09 µM (active) in the assay with HCC 2998; 1.5 µM (inactive) in the assay with HL-60; 1.93 µM (inactive) in the assay on HOP-62; 1.85 µM (inactive) in the assay with Hs-578T. In addition, the GI50 in the assay with K562 was 0.989 µM (active); in the assay on M14 it was 1.55 µM (inactive); in the assay with MCF7, 1.48 µM (inactive); with MDA-N, 1.52 µM (inactive); with MOLT-4, 1.63 µM (inactive); in the assay with NCI/ADR-RES, 2.44 µM (inactive). Also, the GI50 is 0.466 µM (active) with OVCAR-3; 1.22 µM (inactive) in the assay on OVCAR-8; 1.26 µM (inactive) in the assay with PC-3; 1.86 µM (inactive) in the assay on SF-539; 1.45 µM (inactive) with SK-MEL-2; 2.16 µM (inactive) with SR. The GI50 in the assay on SW-620 was 2.38 µM (inactive); with UACC-62, 1.43 µM (inactive).
Consider `COc1ccc(Cn2c(=O)c(OS(=O)(=O)C(F)(F)F)c(C)c3cc4ccccc4cc32)cc1`, for which the GI50 with 786-0, in the assay with ACHN, in the assay on HCC 2998, in the assay with HL-60, in the assay with HOP-62 and in the assay on Hs-578T was > 100 µM (inactive) throughout. The GI50 in the assay with K562, with M14, with MCF7, with MDA-N, in the assay with MOLT-4 and in the assay on NCI/ADR-RES was > 100 µM (inactive) in each case. For the same compound, the GI50 in the assay on OVCAR-3, in the assay with OVCAR-8, in the assay with PC-3, with SF-539, with SK-MEL-2 and in the assay with SR was > 100 µM (inactive) in each case. Also, the GI50 in the assay with SW-620 and with UACC-62 was > 100 µM (inactive) throughout.
Consider `CC(C)(C)OC(=O)NC12C3C4C1C1C2C3C41NC(=O)OC(C)(C)C` (stereo not given), for which the GI50 is 43.1 µM (inactive) in the assay on 786-0; > 100 µM (inactive) in the assay on ACHN; > 100 µM (inactive) in the assay with HCC 2998; 19.7 µM (inactive) with HL-60; 50.6 µM (inactive) with HOP-62; 23.7 µM (inactive) with Hs-578T. The GI50 is 50.4 µM (inactive) in the assay with K562; 50 µM (inactive) in the assay with M14; 29.6 µM (inactive) with MCF7; 61.2 µM (inactive) in the assay on MDA-N; 15.2 µM (inactive) in the assay with MOLT-4; 22.5 µM (inactive) in the assay on NCI/ADR-RES. Moreover, the GI50 in the assay on OVCAR-3 was 79.3 µM (inactive); with OVCAR-8 it was 30.5 µM (inactive); in the assay with PC-3, 61.2 µM (inactive); in the assay with SF-539, 31 µM (inactive); with SK-MEL-2, > 100 µM (inactive); with SR it was 47.5 µM (inactive). Besides, the values for the GI50 in the assay on SW-620 and with UACC-62 were 62.8 µM (inactive) and 54.3 µM (inactive), respectively.
On to `O=S(=O)(c1ccccc1)[C@H]1[C@@H]2O[C@@H]2C[C@@H]1O`, for which the GI50 in the assay on 786-0, in the assay on ACHN, with HCC 2998, in the assay with HL-60, in the assay on HOP-62 and in the assay on Hs-578T was > 100 µM (inactive) throughout. The GI50 in the assay with K562, in the assay with M14, in the assay with MCF7, with MDA-N, in the assay on MOLT-4 and with NCI/ADR-RES was > 100 µM (inactive) each time. The GI50 in the assay with OVCAR-3, in the assay on OVCAR-8, in the assay with PC-3, in the assay with SF-539, in the assay on SK-MEL-2 and in the assay on SR was > 100 µM (inactive) in each case. Besides, the GI50 in the assay with SW-620 and with UACC-62 was > 100 µM (inactive) each time.
